# According to patent publication US8491897B2, “Treatment of neuropathic pain using anti-thrombospondin antibodies” (The Board of Trustees of the Leland Stanford Junior …, priority 2007, dated 2013):
# “Also recorded” adds a separate entry of the source.
# Key:
# [1] = system: RGCs; test: RGC synapse assay: synaptogenic activity (co-localized synaptotagmin/PSD-95 puncta); assay type: cell-based, rat; settings: for number of co-localized synaptic puncta/cell (synapse number): purified TSPs, 8 nM each, vs RGCs alone (Control)
# Experimental: (§1) RGCs were purified by sequential immunopanning to greater than 99.5% purity from P5 Sprague-Dawley rats (Simonsen Labs, Gilroy, Calif.), as previously described (Barres et. al. (1988) Neuron 9, 791). Approximately 30,000 RGCs were cultured per well in 24-well plates (Falcon) on glass (Assistant) or Aclar 22C (Allied Signal) coverslips coated with poly-D-lysine (10 μg/ml) followed by laminin (2 μg/ml). RGCs were cultured in 600 μl of serum-free medium, modified from Bottenstein and Sato (1979), containing Neurobasal (Gibco), bovine serum albumin, selenium, putrescine, triiodo-thyronine, transferrin, progesterone, pyruvate (1 mM), glutamine (2 mM), CNTF (10 ng/ml), BDNF (50 ng/ml), insulin (5 μg/ml), and forskolin (10 μM). Recombinant human BDNF and CNTF were generously provided by Regeneron Pharmaceuticals.
# (§2) Purified human platelet TSP1 was from either Sigma or Haematologic Technologies with similar results. Recombinant TSP2 was purified from serum-free medium conditioned by baculovirus-infected insect cells expressing mouse TSP2. Since purified TSP1 is readily available, we used this as the source of TSP in our experiments unless otherwise stated TSPs were used at a concentration of 5 μg/ml unless otherwise specified. RCGs were cultured for 4 days to allow robust process outgrowth and then cultured with TSPs for an additional 6 days. All other reagents were obtained from Sigma.
# For preparation of ACM, confluent cultures of astrocytes in 10 cm dishes were washed 3× in PBS and fed with 10 mls RGC medium (without CNTF, BDNF or forskolin). ACM was harvested after 4-6 days of conditioning, filtered through a 0.2 μm syringe filter and concentrated 10× through a 5 KD molecular weight cut-off centrifuge concentrator (Millipore), unless otherwise indicated. ACM was used at a final concentration of 5× unless otherwise indicated. […]
# For synapse quantification, cultures were fixed for 7 min in 4% paraformaldehyde (PFA), washed 3× in phosphate buffered saline (PBS) and blocked in 100 μL of blocking buffer (50% Antibody Buffer (0.5% bovine serum albumin, 0.5% Triton X-100, 30 mM NaPO4, 750 mM NaCl, 5% normal goat serum, and 0.4% NaN3, pH 7.4), 50% goat serum (NGS), 0.1% Triton-X) for 30 min. […]
# (§3) Mounted coverslips were imaged using Nikon Diaphot and Eclipse epifluorescence microscopes (Nikon). Healthy cells that were at least 2 cell diameters from their nearest neighbor were identified and selected at random by eye using DAPI fluorescence. 8-bit digital images of the fluorescence emission at both 594 nm and 488 nm were recorded for each selected cell using a cooled monochrome CCD camera and SPOT image capture software (Diagnostic Instruments, Inc). […]
# [2] = system: naive rats; test: TSP4-induced behavioral hypersensitivity in naive rats (paw withdrawal threshold, von Frey); assay type: in vivo, rat
# [3] = molecular target: T1, TSP4 (Rattus norvegicus, UniProt P49744); test: Reversal of established tactile allodynia in L5/6 spinal nerve ligated rats (von Frey PWT); assay type: in vivo; settings: 50 ug/day intrathecal for four days; for reversal of established allodynia in the injury (ipsilateral) side: 5 weeks post injury
# T1 construct: elevated TSP4 protein may play a critical role in peripheral nerve injury-induced allodynia at the spinal level; from tissue; host or cells: spinal cord (L5/6) of live male Sprague Dawley rats, intrathecal injection
# T1 sequence (P49744 43-980): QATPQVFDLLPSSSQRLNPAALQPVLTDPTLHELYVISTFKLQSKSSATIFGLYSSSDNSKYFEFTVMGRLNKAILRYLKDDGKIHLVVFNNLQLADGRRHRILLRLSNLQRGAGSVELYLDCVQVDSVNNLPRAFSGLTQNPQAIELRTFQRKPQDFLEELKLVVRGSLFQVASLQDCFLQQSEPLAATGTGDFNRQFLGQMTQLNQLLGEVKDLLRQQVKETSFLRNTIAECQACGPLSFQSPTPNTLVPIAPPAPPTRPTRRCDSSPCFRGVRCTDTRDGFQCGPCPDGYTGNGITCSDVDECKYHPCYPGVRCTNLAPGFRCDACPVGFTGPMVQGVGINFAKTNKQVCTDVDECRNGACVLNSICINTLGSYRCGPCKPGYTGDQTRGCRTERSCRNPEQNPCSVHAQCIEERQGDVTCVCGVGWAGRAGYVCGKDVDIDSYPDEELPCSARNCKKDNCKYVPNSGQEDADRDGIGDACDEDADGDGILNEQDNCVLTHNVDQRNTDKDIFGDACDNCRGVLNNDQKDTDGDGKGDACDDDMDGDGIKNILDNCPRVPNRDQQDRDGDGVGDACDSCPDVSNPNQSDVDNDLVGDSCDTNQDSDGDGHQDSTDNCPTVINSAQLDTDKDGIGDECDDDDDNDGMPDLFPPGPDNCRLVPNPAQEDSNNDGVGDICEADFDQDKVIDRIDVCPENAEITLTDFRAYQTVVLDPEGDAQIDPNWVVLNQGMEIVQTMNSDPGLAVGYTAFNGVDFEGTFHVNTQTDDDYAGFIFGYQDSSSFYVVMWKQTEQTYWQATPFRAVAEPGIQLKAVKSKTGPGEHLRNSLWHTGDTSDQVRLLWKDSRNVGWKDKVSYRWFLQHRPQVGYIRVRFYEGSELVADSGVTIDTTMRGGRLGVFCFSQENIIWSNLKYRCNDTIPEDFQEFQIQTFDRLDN
# Experimental: To determine if TSP4 plays a role in mediating neuropathic pain processing at the spinal cord level, the effect of intrathecal TSP4 antisera in reversing established allodynia in spinal nerve ligated rats was examined. Intrathecal bolus injection of active TSP4 antibody (chicken polyclonal, from Dr. Frank Zaucke at University of Cologne, Cologne, Germany) was administered into left L5/6 spinal nerve ligated rats 2-weeks post injury, when the injured rats had fully developed allodynia. […] Neither the antisense nor mismatch oligodeoxynucleotides altered the behavioral thresholds at the non-injury side. […] Male Harlan Sprague Dawley rats (100-150 g, Harlan Industries Indianapolis, Ind.) were housed in separate cages, exposed to a 12/12 h day/night cycle and allowed free access to food and water. Peripheral nerve injury was induced in isoflurane-anesthetized animals with tight ligation of the left L5/6 spinal nerves between DRG and the beginning of the spinal nerve (Kim and Chung, Pain 50 50:355-363, 1992). To access tactile allodynia, paw withdrawal threshold (PWT) was determined using the up-down method of Dixon (Dixon, Ann. Rev. Pharma. & Toxico. 20:441-462, 1980) with von Frey filaments (Stoelting, Wood Dale, Ill., USA) as described previously (Chaplan et al., J. Neuros. Methods 53:55-63, 1994). Briefly, animals were allowed to acclimate for 30 min in a clear plastic cubicle with a wire-mesh base. A 2 g calibrated filament was first applied to the left hindpaw plantar surface with a pressure causing the filament to bend. If no paw lifting was detected after 5 s the next filament with increasing weight was used. If a paw lifting was observed, the next weaker filament was used. […] Neurosci. 21:1868-75, 2001). […] Rn014934317, Applied Biosystems), and is specific to the TSP 4 mRNA. Mismatch oligodeoxynucleotides, which contain the same number of nucleotides but in a random order (not complementary to any particular region of TSP4 mRNA), were used as controls. […] Genbank accession #: X89963) Oligodeoxynucleotides: These antisense and mismatch sequences were not complementary to any sequences of other rat genes as indicated by BLAST search results in rat genome database. It had been shown that oligodeoxynucleotides with phosphorothioate modification have increased potential for crossing lipid bilayers, and reduce nuclease cleavage (Crooke, et al., Ann. Rev. Pharmacology. & Toxicology, 1996).
# [4] = system: RGCs; test: Inhibition of TSP-, astrocyte/ACM- or Hevin-induced synapse formation in RGC cultures; assay type: cell-based, rat
# Experimental: as §1, §2
# For preparation of ACM, confluent cultures of astrocytes in 10 cm dishes were washed 3× in PBS and fed with 10 mls RGC medium (without CNTF, BDNF or forskolin). ACM was harvested after 4-6 days of conditioning, filtered through a 0.2 μm syringe filter and concentrated 10× through a 5 KD molecular weight cut-off centrifuge concentrator (Millipore), unless otherwise indicated. ACM was used at a final concentration of 5× unless otherwise indicated. RCGs were cultured for 4 days to allow robust process outgrowth and then cultured with ACM or an astrocyte-feeding layer for an additional 6 days.
# For synapse quantification, cultures were fixed for 7 min in 4% paraformaldehyde (PFA), washed 3× in phosphate buffered saline (PBS) and blocked in 100 μL of blocking buffer (50% Antibody Buffer (0.5% bovine serum albumin, 0.5% Triton X-100, 30 mM NaPO4, 750 mM NaCl, 5% normal goat serum, and 0.4% NaN3, pH 7.4), 50% goat serum (NGS), 0.1% Triton-X) for 30 min. After blocking, cover slips were washed 3× in PBS and 100 μL of primary antibody solution was added to each cover slip, consisting of rabbit anti-synaptotagmin (cytosolic domain, Synaptic Systems) and mouse anti-PSD-95 (6G6-1C9 clone, Affinity Bio Reagents) diluted 1:500 in antibody buffer. Coverslips were incubated overnight at 4° C., washed 3× in PBS, and incubated with 100 μL of secondary antibody solution containing Alexa-594 conjugated goat anti-rabbit and Alexa-488 conjugated goat anti-mouse (Molecular Probes) diluted 1:1000 in antibody buffer. Following incubation for 2 h at room temperature, coverslips were washed five times in PBS and mounted in Vectashield mounting medium with DAPI (Vector Laboratories Inc) on glass slides (VWR Scientific). For presynaptic activity assay, rabbit synaptotagmin antiserum was generated by immunization with a peptide corresponding to the N-terminal luminal portion of synaptotagmin. This serum was added at 1:500 to live cultures and incubated for 6 hours. Cells were then washed 3× in DPSB, fixed and stained as above, except for the omission of synaptotagmin antibody from the primary antibody solution.
# as §3
molecule,measurement,setting,value
TSP4: recombinant purified pentameric thrombospondin 4,number of co-localized synaptic puncta/cell (synapse number),[1],significantly increased the number of co-localized synaptic puncta/cell; also recorded: increased synaptic puncta numbers to the same extent as either astrocytes or TSP1
same,duration of behavioral hypersensitivity,[2]; intrathecal bolus,over a week
same,reversal time post the peak effect time,[2]; intrathecal bolus,about five days
same,time of peak effect post injection,[2]; intrathecal bolus,2 to 4 days
same,hindpaw withdrawal thresholds to von Frey filament stimulation,[2]; intrathecal bolus injection of active protein into L5/6 spinal cord segments,caused a gradual reduction in their hindpaw withdrawal thresholds; also recorded: induced behavioral hypersensitivity in a dose-dependent and reversible manner
TSP3: mouse TSP3 overexpressed in Cos7 cells; conditioned media used as source,number of co-localized synaptic puncta/cell,"[1]; culture supernatant of Cos7 cells overexpressing TSP3, vs supernatant of empty-vector Cos7 cells",significantly increased the number of co-localized synaptic puncta/cell; also recorded: increased the number of synaptic puncta to the same extent as astrocytes
"5′ CCATCATTGTTGCTATCTTCC 3′ (DNA, backbone and methylation of C not given here; further chemistry not fully specified) [Antisense #2]",duration of antisense effects after the last injection,[3],3 days
same,onset time of antisense effects,[3],3 days
same,time of peak antisense effect,[3],one day after the 4-day treatment
same,reversal of established allodynia in the injury (ipsilateral) side,[3],caused a complete reversal of established allodynia
same,reversal of established allodynia in the injury (ipsilateral) side,[3]; listed as TSP4 antisense oligonucleotide #2,caused a complete reversal of established allodynia in the injury side
"5′ GGCGTAATCATGGTCATACG 3′ (DNA, backbone and methylation of C not given here; further chemistry not fully specified) [Antisense #1]",reversal of established allodynia in the injury (ipsilateral) side,[3],had some effects in allodynia reversal
"NCCCC(=O)O [GABA, γ-aminobutyric acid]",effect on SD2/TSP-induced synapse formation,[4]; 1 mM (high concentrations),blocked TSP induced synapse formation; also recorded: inhibitory
same,effect on synapse numbers induced by SD2,[4]; 10 and 100 μM,did not decrease the synapse numbers
"TSP1: purified human platelet TSP1, trimeric thrombospondin",number of co-localized synaptic puncta/cell (synapse number),[1],significantly increased the number of co-localized synaptic puncta/cell; also recorded: increased the number of synapses formed by RGCs significantly
"Hevin: another astrocyte secreted synaptogenic protein (protein, UniProt Q14515 17-664, looked up) SPARC-like protein 1: IPTNARLLSDHSKPTAETVAPDNTAIPSLRAEAEENEKETAVSTEDDSHHKAEKSSVLKSKEESHEQSAEQGKSSSQELGLKDQEDSDGHLSVNLEYAPTEGTLDIKEDMSEPQEKKLSENTDFLAPGVSSFTDSNQQESITKREENQEQPRNYSHHQLNRSSKHSQGLRDQGNQEQDPNISNGEEEEEKEPGEVGTHNDNQERKTELPREHANSKQEEDNTQSDDILEESDQPTQVSKMQEDEFDQGNQEQEDNSNAEMEEENASNVNKHIQETEWQSQEGKTGLEAISNHKETEEKTVSEALLMEPTDDGNTTPRNHGVDDDGDDDGDDGGTDGPRHSASDDYFIPSQAFLEAERAQSIAYHLKIEEQREKVHENENIGTTEPGEHQEAKKAENSSNEEETSSEGNMRVHAVDSCMSFQCKRGHICKADQQGKPHCVCQDPVTCPPTKPLDQVCGTDNQTYASSCHLFATKCRLEGTKKGHQLQLDYFGACKSIPTCTDFEVIQFPLRMRDWLKNILMQLYEANSEHAGYLNEKQRNKVKKIYLDEKRLLAGDHPIDLLLRDFKKNYHMYVYPVHWQFSELDQHPMDRVLTHSELAPLRASLVPMEHCITRFFEECDPNKDKHITLKEWGHCFGIKEEDIDENLLF",number of synapses formed,"[1]; 3 DIV RGCs treated 9 days, TSP2 EGF-like domains 20 nM, Hevin 30 nM, vs RGCs alone",increased the number of synapses formed significantly
